Assay results from the supplement of paper PMC10307832.

Assays:
Experiment in all cases: relative viability (nuclei count vs DMSO), 5 days (fraction); higher = more cells survive
NVP-TAE684 + Palbociclib = compound: COc1cc(N2CCC(N3CCN(C)CC3)CC2)ccc1Nc1ncc(Cl)c(Nc2ccccc2S(=O)(=O)C(C)C)n1 [NVP-TAE684] + CC(=O)c1c(C)c2cnc(Nc3ccc(N4CCNCC4)cn3)nc2n(C2CCCC2)c1=O [Palbociclib] (partner 0.5 µM)
Method in brief: (§1)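 For relative viability, nuclei counts in treated wells were divided by those in vehicle wells. Lung cancer cell lines had been pin-tool dosed in 1536-well plates the day after seeding and cultured for 5 days, then fixed and stained in one step (final 0.05% Triton X-100, 1% formaldehyde, 1 ug/ml Hoechst) and imaged at 4×. Doses were one drug alone or a fixed anchor-drug dose plus five library-drug doses (not always all listed) in √10 steps, and values are duplicate-plate medians.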

Vandetanib + Bortezomib = compound: COc1cc2/c(=N/c3ccc(Br)cc3F)nc[nH]c2cc1OCC1CCN(C)CC1 [Vandetanib] + CC(C)C[C@H](NC(=O)[C@H](Cc1ccccc1)NC(=O)c1cnccn1)B(O)O [Bortezomib] (partner 0.002 µM)
Method in brief: as §1

[1] = compound: C1=CC=C2C(=C1)N=C(S2)C(C#N)C3=NC(=NC=C3)NCCC4=CN=CC=C4 + Nc1nc2[nH]cc(CCc3ccc(C(=O)N[C@@H](CCC(=O)O)C(=O)O)cc3)c2c(=O)[nH]1 [Pemetrexed] (partner 0.2 µM)
Method in brief: as §1

Vandetanib + Linsitinib = compound: COc1cc2/c(=N/c3ccc(Br)cc3F)nc[nH]c2cc1OCC1CCN(C)CC1 [Vandetanib] + C[C@]1(O)C[C@@H](c2nc(-c3ccc4ccc(-c5ccccc5)nc4c3)c3c(N)nccn32)C1 [Linsitinib] (partner 1 µM)
Method in brief: as §1

Cell Line	relative viability (NVP-TAE684 + Palbociclib; first compound 0.2 µM)	relative viability (NVP-TAE684 + Palbociclib; first compound 0.6325 µM)	relative viability (NVP-TAE684 + Palbociclib; first compound 2 µM)	relative viability (Vandetanib + Bortezomib; first compound 0.02 µM)	relative viability (Vandetanib + Bortezomib; first compound 0.06325 µM)	relative viability (Vandetanib + Bortezomib; first compound 0.6325 µM)	relative viability (Vandetanib + Bortezomib; first compound 2 µM)	relative viability ([1]; first compound 0.005 µM)	relative viability ([1]; first compound 0.01581 µM)	relative viability ([1]; first compound 0.05 µM)	relative viability ([1]; first compound 0.1581 µM)	relative viability ([1]; first compound 0.5 µM)	relative viability (Vandetanib + Linsitinib; first compound 0.02 µM)	relative viability (Vandetanib + Linsitinib; first compound 0.06325 µM)	relative viability (Vandetanib + Linsitinib; first compound 0.2 µM)	relative viability (Vandetanib + Linsitinib; first compound 0.6325 µM)	relative viability (Vandetanib + Linsitinib; first compound 2 µM)	relative viability (Vandetanib + Bortezomib; first compound 0.2 µM)
NCI-H1650	0.297	0.299	0.211	0.253	0.21	0.209	0.195	0.382	0.385	0.395	0.353	0.27						
NCI-H2170	0.33	0.382	0.375					0.275	0.26	0.27	0.27	0.274						
NCI-H1395	0.618	0.639	0.54					0.71		0.949	1.13	0.952	1.1	1.09	0.934	0.968	1.18	
NCI-H2342	0.499	0.459	0.457					0.823	0.716	0.697	0.85	0.81						
EBC-1				0.635	0.559	0.577	0.505						0.742	0.893	0.958	0.885	0.925	0.647
NCI-H1944	0.313	0.321	0.236					0.605	0.665	0.66	0.558	0.576	1.08	1.16	1.18	0.981	0.94	
NCI-H727	0.638	0.623	0.516	0.791	0.657	0.856	0.872						0.216	0.336	0.347	0.283	0.271	0.783
ChaGo-K-1	1.04		0.7	1.11	0.985	0.887	0.567	0.249	0.263	0.293	0.255	0.256						0.593
NCI-H596				0.998	1	0.717	0.958	0.464	0.517	0.485	0.58	0.495	1.04	0.942	1.11	0.956	0.972	0.965
NCI-H1299				0.997	0.976	1.05	1.04						0.912	0.916	0.997	0.957	1	1.02
Calu-6				1.15	0.933	0.959	0.941						0.939	0.861	0.911	0.975	0.876	1.09
NCI-H1703				0.379		0.31	0.245						0.543	0.73	1.14	0.637	0.535	0.374
SK-MES-1	0.347	0.313	0.296					0.799	0.923	0.823	1.04	0.644	1.09	0.925	1.06	0.971	0.989	
NCI-H1648	0.241	0.295	0.202						0.682		0.673	0.652						
